Experimental data from the NIST ThermoML archive (doi:10.1016/j.jct.2010.03.021).
“And” between values parts separate entries of the source, which are not always exact repeats. Identical values can stand only once. Numbers after ± are expanded uncertainties.

Experiments:
[1] = Crystal, Calculated from knudsen effusion weight loss
[2] = molar enthalpy of vaporization or sublimation; details: Crystal

O=[N+]([O-])c1ccccc1-n1cccc1 [1-(2-nitrophenyl)pyrrole]
[1]
Details	vapor or sublimation pressure
306.11 K	0.000106 ± 5e-06 kPa and 0.000108 ± 5e-06 kPa and 0.000109 ± 5e-06 kPa
308.2 K	0.000141 ± 7e-06 kPa and 0.000138 ± 7e-06 kPa and 0.000139 ± 7e-06 kPa
310.18 K	0.000181 ± 9e-06 kPa and 0.000173 ± 9e-06 kPa and 0.000174 ± 9e-06 kPa
312.12 K	0.000226 ± 1.1e-05 kPa and 0.000227 ± 1.1e-05 kPa and 0.000228 ± 1.1e-05 kPa
314.19 K	0.000291 ± 1.5e-05 kPa and 0.000284 ± 1.4e-05 kPa and 0.00029 ± 1.5e-05 kPa
316.18 K	0.000368 ± 1.8e-05 kPa and 0.000355 ± 1.8e-05 kPa and 0.000358 ± 1.8e-05 kPa
318.11 K	0.000464 ± 2.3e-05 kPa and 0.000466 ± 2.3e-05 kPa
320.18 K	0.0006 ± 3e-05 kPa and 0.000587 ± 2.9e-05 kPa and 0.000594 ± 3e-05 kPa
322.18 K	0.000764 ± 3.8e-05 kPa and 0.000733 ± 3.7e-05 kPa and 0.00074 ± 3.7e-05 kPa
324.12 K	0.000955 ± 4.8e-05 kPa and 0.000965 ± 4.8e-05 kPa and 0.000963 ± 4.8e-05 kPa
326.2 K	0.001224 ± 0.00013 kPa and 0.001209 ± 0.00013 kPa and 0.001238 ± 0.00013 kPa

[2], Clausius-Clapeyron Equation
Details	molar enthalpy [kcal/mol]
298.15 K	24.21 ± 0.191
316.16 K	24 ± 0.191

O=[N+]([O-])c1ccc(-n2cccc2)cc1 [1-(4-nitrophenyl)pyrrole]
[1]
Details	vapor or sublimation pressure
344.09 K	9.59e-05 ± 4.8e-06 kPa and 9.52e-05 ± 4.8e-06 kPa and 9.41e-05 ± 4.7e-06 kPa
346.13 K	0.000118 ± 6e-06 kPa and 0.000117 ± 6e-06 kPa
348.17 K	0.000145 ± 7e-06 kPa and 0.000144 ± 7e-06 kPa
350.09 K	0.000179 ± 9e-06 kPa and 0.000182 ± 9e-06 kPa and 0.000181 ± 9e-06 kPa
352.13 K	0.000219 ± 1.1e-05 kPa and 0.00022 ± 1.1e-05 kPa and 0.000227 ± 1.1e-05 kPa
354.18 K	0.00027 ± 1.4e-05 kPa and 0.000272 ± 1.4e-05 kPa and 0.000284 ± 1.4e-05 kPa
356.13 K	0.000344 ± 1.7e-05 kPa and 0.000343 ± 1.7e-05 kPa and 0.00034 ± 1.7e-05 kPa
358.2 K	0.00043 ± 2.2e-05 kPa and 0.000417 ± 2.1e-05 kPa and 0.000427 ± 2.1e-05 kPa
360.16 K	0.000505 ± 2.5e-05 kPa and 0.000525 ± 2.6e-05 kPa
362.07 K	0.000642 ± 3.2e-05 kPa and 0.000638 ± 3.2e-05 kPa and 0.000641 ± 3.2e-05 kPa
364.09 K	0.000766 ± 3.8e-05 kPa and 0.000762 ± 3.8e-05 kPa and 0.000783 ± 3.9e-05 kPa
366.16 K	0.000934 ± 4.7e-05 kPa and 0.000933 ± 4.7e-05 kPa

[2]
Details	molar enthalpy [kcal/mol]
298.15 K, Ebulliometric method (Recirculating still)	26.86 ± 0.215
355.13 K, Clausius-Clapeyron Equation	26.2 ± 0.191
